The results in this text go back to patent US20240252560A1, “LACTOBACILLUS RHAMNOSUS-DERIVED VESICLE AND USES THEREOF” (MD HEALTHCARE INC., priority 2021, published 2024).

The test system of the assay is AMPK. Nature of the assay: AMPK activation (pAMPK Western blotting) in muscle cells. The following applies: 1 hour, vesicles 0, 0.1, 1, 10 μg/ml, metformin 10 μg/ml. In kind it is cell-based. The protocol: Therefore, an experiment was performed in the following manner to evaluate the effect of Lactobacillus rhamnosus-derived vesicles (MDH-003) on cellular aging through AMPK activation within cells. That is, to evaluate AMPK activity according to the concentration of Lactobacillus rhamnosus-derived vesicles in muscle cells, cells were treated with Lactobacillus rhamnosus-derived vesicles at concentrations of 0, 0.1, 1, and 10 μg/ml for 1 hour. As a control group, metformin, which suppresses aging, was used at a concentration of 10 μg/ml. After treating the cells with the drug, the difference in the amount of pAMPK, which is an important indicator in AMPK signaling, was measured by Western blotting.
On the technique in general: Immunoblotting shows a protein as a band on a membrane.

With `CN(C)C(=N)N=C(N)N` [metformin], the “phosphorylation of AMPK (pAMPK)” value was “enhanced”.
